In PMC12856912, “Structure-Guided Semisynthesis of Blasticidin S–Amicetin Chimeras as Selective Ribosome Inhibitors” (Journal of the American Chemical Society, 2026):
≈ marks a conversion by molar mass, not a printed value. Read-outs that look alike come from different tables or passages of the source.

Experiments:
[1] = system: Methicillin resistant Staphylococcus epidermidis (MRSE) ATCC 35984 NRS101; assay: Antibacterial MIC assay, serial dilution; type: cell-based; details: for Selectivity index (CC50/MIC) MRSE 35984: CC50 Vero cells / MIC; for MIC: Staphylococcus epidermidis, read-out: MIC Methicillin resistant Staphylococcus epidermidis (MRSE) ATCC 35984 NRS101
[2] = system: Methicillin resistant S. aureus (MRSA) USA300; assay: Antibacterial MIC assay, serial dilution; type: cell-based, Staphylococcus aureus; details: for Selectivity index (CC50/MIC) MRSA USA300: CC50 Vero cells / MIC; for MIC: Staphylococcus aureus, read-out: MIC Methicillin resistant S. aureus (MRSA) USA300
Pseudomonas aeruginosa = assay: Antibacterial MIC assay, serial dilution; type: cell-based; details: for Selectivity index (CC50/MIC) P. aeruginosa: CC50 Vero cells / MIC; for MIC: Pseudomonas aeruginosa, range from biological replicates, read-out: MIC P. aeruginosa
Procedure: (§1) Media and solutions were autoclaved or sterile filtered prior to use and mani pulations were carri ed out in a laminar flow hood. Antibacterial t esting was performed in polypropylene 96-well flat bottom plates. The minimal inhibitory concentration of blasticidin S (1) hydrochloride, methyl ester (3) trihydrochloride, P10 (2) tri-T FA , phenet hyl amide (4) tri -T FA , an d blastimidines M 19– 22, A, 29–32, P 37–40, and C 43–46 (salt forms as described in the te xt) were assessed against Staphylococcus aureus ΔNorA, S. aureus ATCC 6538P, methicillin-resistant S. aureus (MRSA) ATCC 43300, Enterococcus faecalis ATCC 29212, vancomycin- resistant Enterococcus, Klebsiella pneumoniae ATCC 29665, Pseudomonas aeruginosa,and Acinetobacter baumannii ATCC 17978 using serial dilutions. Doxycycline (Gold Bio) as a positive control and the vehicle as a negative control. Stock solutions of each compound were prepared at 2.56 mg/mL in 50% DMSO/water and serially diluted in 50% DMSO/water to create master plates. From the master plates, 10 μ L o f each dilution was applied to test plates using a Bravo automated liquid transfer system (Agilent).
(§2) Bacteria previously grown overnight (37 °C, 120–200 RPM), in LB broth were diluted to an OD600 of 0.05 in cation-adjusted Mueller-Hinton broth (CAMHB), grown to an OD600 of ~0.5, and diluted to an OD600 of 0.004 in CAMHB . These diluted cultures were applied to the test plates (190 μL per test well) resulting in final concentrations of the test compounds of 128–1 μg/ m L.
(§3) Growth controls (wells with inoculated media but no vehicle or test compounds) were included to assess any potential toxicity from the vehicle. Th e plates were in cubated at 37 °C for 16–18 h, except fo r VRE and E. faecalis, which w ere in cub ated at 37 °C fo r 24 h. Inh ibition was determined by measuring the optical density at 600 nm (OD60 0) with a Cytation 3 pl ate read er (BioTek). The optical density measurem ents were no rmalized to the positive and negative controls and the vehicle and growth controls were compared and found to b e indistinguishable, indicating no toxicity from […]
(§4) the vehicle used. The MIC was the lowest concentration that inhibited >90% of growth. Two biological replicates were performed in duplicate. MIC values are reported as a range from […]

[3] = system: Vancomycin resistant Enterococcus faecium NR-31909 (VRE); assay: Antibacterial MIC assay, serial dilution; type: cell-based; details: for Selectivity index (CC50/MIC) VRE NR-31909: CC50 Vero cells / MIC; for MIC: Enterococcus faecium, VRE, 24 h, read-out: MIC Vancomycin resistant Enterococcus faecium NR-31909 (VRE)
Procedure: as §1, §2, §3, §4

[4] = system: Enterococcus faecalis ATCC 29212; assay: Antibacterial MIC assay, serial dilution; type: cell-based; details: for Selectivity index (CC50/MIC) E. faecalis 29212: CC50 Vero cells / MIC; for MIC: Enterococcus faecalis, ATCC 29112 / ATCC 29212, 24 h, read-out: MIC E. faecalis ATCC 29112
Procedure: as §1, §2, §3, §4

[5] = system: Klebsiella pneumoniae ATCC 29665; assay: Antibacterial MIC assay, serial dilution; type: cell-based; details: for Selectivity index (CC50/MIC) K. pneumoniae: CC50 Vero cells / MIC; for MIC: Klebsiella pneumoniae, ATCC29665, range from biological replicates, read-out: MIC K. pneumoniae ATCC-29665
Procedure: as §1, §2, §3, §4

[6] = system: Acinetobacter baumannii ATCC 17978; assay: Antibacterial MIC assay, serial dilution; type: cell-based; details: ATCC17978, range from biological replicates
Procedure: as §1, §2, §3, §4

[7] = system: Vancomycin resistant E. faecalis NR-31972 (VRE); assay: Antibacterial MIC assay, serial dilution; type: cell-based, Enterococcus faecalis; details: for Selectivity index (CC50/MIC) VRE NR-31972: CC50 Vero cells / MIC; for MIC: Enterococcus faecalis, VRE, 24 h, read-out: MIC Vancomycin resistant E. faecalis NR-31972 (VRE)
Procedure: as §1, §2, §3, §4

[8] = system: Escherichia coli BAA-2452; assay: Antibacterial MIC assay, serial dilution; type: cell-based; details: BAA2452, read-out: MIC Escherichia coli BAA-2452
S. aureus ATCC 6538P = assay: Antibacterial MIC assay, serial dilution; type: cell-based, Staphylococcus aureus; details: for Selectivity index (CC50/MIC) S. aureus 6538P: CC50 Vero cells / MIC; for MIC: Staphylococcus aureus, ATCC 6538P / ATCC 6539P, read-out: MIC S. aureus ATCC 6539P
Procedure: as §1, §2, §3, §4

S. aureus ΔNorA = assay: Antibacterial MIC assay, serial dilution; type: cell-based, Staphylococcus aureus; details: for Selectivity index (CC50/MIC) S. aureus ΔNorA: CC50 Vero cells / MIC; for MIC: Staphylococcus aureus, read-out: MIC S. aureus ∆NorA
Procedure: as §1, §2, §3, §4

MRSA ATCC 43300 = assay: Antibacterial MIC assay, serial dilution; type: cell-based, Staphylococcus aureus; details: for Selectivity index (CC50/MIC) MRSA 43300: CC50 Vero cells / MIC; for MIC: Staphylococcus aureus, read-out: MIC MRSA ATCC 43300
Procedure: as §1, §2, §3, §4

[9] = Cytotoxicity assay (MTS/PMS); type: cell-based; details: monkey, 24 h treatment, MTS/PMS, average of three biological replicates, read-out: CC50 against Vero cells
Procedure: The potential cytotoxic eff ect of the test compounds was investigated using Vero cells (monkey kidney epitheli al cells) following est ablished protocols.3 Briefly, Vero cells were plated into 96-well plates supplemented with Dulbecco's Modified Eagle Medium (DMEM) containing 10% fetal bovine serum (FBS). The cells were placed in a humidified 37 °C environment for incubation with 5% CO₂ for 24 h to allow proper adherence and growth. Following the incubation period, the culture medium was replaced with fresh DMEM containing serial dilutions of the test compounds, while the v ehicle alon e w as used as a negative control. The treated cells were incubated for an additional 24 h. To assess cell viability, the MTS/PMS reagent was added to each well and incubat ed for 4 h. A microplate reader (S ynergy H1, BioTek, USA) was used to m easure absorbance at 490 nm. Al l experiments wer e cond ucted usingthree biologi cal replicates .
Ta b l e S2. CC50 valuesa (µg/mL) against Vero cells […]
aValues at which the cell viability (normalized to vehicle control) was 50%. […]

[10] = Vero cells (monkey kidney epithelial cells)

Row | SMILES | Selectivity index (CC50/MIC) MRSE 35984 [1] | MIC [1] [µg/mL] | Selectivity index (CC50/MIC) MRSA USA300 [2] | MIC [2] [µg/mL] | Selectivity index (CC50/MIC) P. aeruginosa (Pseudomonas aeruginosa) | MIC (Pseudomonas aeruginosa) [µg/mL] | Selectivity index (CC50/MIC) VRE NR-31909 [3] | MIC [3] [µg/mL] | Selectivity index (CC50/MIC) E. faecalis 29212 [4] | MIC [4] [µg/mL] | Selectivity index (CC50/MIC) K. pneumoniae [5] | MIC [5] [µg/mL] | MIC [6] [µg/mL] | Selectivity index (CC50/MIC) VRE NR-31972 [7] | MIC [7] [µg/mL] | MIC [8] [µg/mL] | Selectivity index (CC50/MIC) S. aureus 6538P (S. aureus ATCC 6538P) | MIC (S. aureus ATCC 6538P) [µg/mL] | Selectivity index (CC50/MIC) S. aureus ΔNorA (S. aureus ΔNorA) | MIC (S. aureus ΔNorA) [µg/mL] | other results
1 | COC(=O)[C@H]1O[C@@H](n2ccc(NC(=O)c3ccc(NC(=O)[C@@](C)(N)CO)cc3)nc2=O)C=C[C@@H]1NC(=O)C[C@@H](N)CCN(C)C(=N)N [Blastimidine M5] | 2.3 | 64 (≈ 97.5 µM) | 2.3 | 64 (≈ 97.5 µM) | <1.2 | > 128 | 6.3 | 16 to 32 (≈ 24.4 to 48.7 µM) | 2.3 | 64 (≈ 97.5 µM) | 3.5 | 32 to 64 (≈ 48.7 to 97.5 µM) | > 128 | 2.3 | 64 (≈ 97.5 µM) | 32 (≈ 48.7 µM) | 2.3 | 64 (≈ 97.5 µM) | 2.3 | 64 (≈ 97.5 µM) | Selectivity index (CC50/MIC) MRSA 43300 (MRSA ATCC 43300): 2.3; MIC (MRSA ATCC 43300): 64 µg/mL (≈ 97.5 µM); CC50 at 24 h [9, 10]: 150 µg/mL (≈ 228 µM)
2 | COC(=O)[C@H]1O[C@@H](n2ccc(NC(=O)c3ccc(N)cc3)nc2=O)C=C[C@@H]1NC(=O)C[C@@H](N)CCN(C)C(=N)N [Blastimidine M2] | 7.9 | 16 (≈ 28.8 µM) | 16 | 8 (≈ 14.4 µM) | <1.0 | > 128 | 1.0 | 128 (≈ 230 µM) | 16 | 8 (≈ 14.4 µM) | 2.0 | 64 (≈ 115 µM) | > 128 | 4.0 | 32 (≈ 57.6 µM) | 32 (≈ 57.6 µM) | 7.9 | 16 (≈ 28.8 µM) | 5.9 | 16 to 32 (≈ 28.8 to 57.6 µM) | Selectivity index (CC50/MIC) MRSA 43300 (MRSA ATCC 43300): 7.9; MIC (MRSA ATCC 43300): 16 µg/mL (≈ 28.8 µM); CC50 at 24 h [9]: 126 µg/mL (≈ 227 µM)
3 | CN(CC[C@H](N)CC(=O)N[C@H]1C=C[C@H](n2ccc(NC(=O)c3ccc(N)cc3)nc2=O)O[C@@H]1C(N)=O)C(=N)N [Blastimidine A2] | 0.5 | 32 (≈ 59.2 µM) | 1.0 | 16 (≈ 29.6 µM) | <0.1 | > 128 | 1.0 | 16 (≈ 29.6 µM) | 1.0 | 16 (≈ 29.6 µM) | 1.0 | 16 (≈ 29.6 µM) | > 128 | 0.5 | 32 (≈ 59.2 µM) | 16 (≈ 29.6 µM) | 1.0 | 16 (≈ 29.6 µM) | 0.5 | 32 (≈ 59.2 µM) | Selectivity index (CC50/MIC) MRSA 43300 (MRSA ATCC 43300): 1.0; MIC (MRSA ATCC 43300): 16 µg/mL (≈ 29.6 µM); CC50 at 24 h [9, 10]: 16 µg/mL (≈ 29.6 µM)
